Laboratory results published in ChEMBL document CHEMBL4725287, “An in silico mechanistic insight into HDAC8 activation facilitates the discovery of new small-molecule activators” (Bioorg Med Chem, 2020).

Columns and labels:
[1] = biological target: T1, Histone deacetylase 8 (Homo sapiens) (UniProt Q9BY41); experiment: Substrate-dependent activation of HDAC8 (unknown origin) assessed as fold activation using FLUOR DE LYS as substrate at 20 uM incubated for 30 mins by fluorescence based assay relative to control; conditions: filed as activator
T1 sequence (whole entry): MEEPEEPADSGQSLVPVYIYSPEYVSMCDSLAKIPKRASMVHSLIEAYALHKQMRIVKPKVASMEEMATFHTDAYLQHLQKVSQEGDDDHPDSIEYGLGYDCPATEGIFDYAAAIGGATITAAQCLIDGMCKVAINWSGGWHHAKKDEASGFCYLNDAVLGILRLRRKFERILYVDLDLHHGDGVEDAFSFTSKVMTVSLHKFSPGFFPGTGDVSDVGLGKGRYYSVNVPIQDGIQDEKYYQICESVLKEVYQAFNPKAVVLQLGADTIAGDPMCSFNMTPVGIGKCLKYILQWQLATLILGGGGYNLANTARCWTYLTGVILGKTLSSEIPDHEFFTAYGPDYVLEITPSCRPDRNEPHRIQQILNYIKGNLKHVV

Histone deacetylase 8 = biological target: T2, Histone deacetylase 8 (Homo sapiens, UniProt Q9BY41); experiment: Substrate-dependent activation of HDAC8 (unknown origin) using FLUOR DE LYS as substrate incubated for 30 mins by fluorescence based assay
T2 sequence (Q9BY41 whole entry): T1 sequence (whole entry)

Row | SMILES | fold change (FC) [1] | EC50 (Histone deacetylase 8) [µM]
1 | O=C(O)c1cccnc1S | 1.3 | –
2 | Oc1cccc2cccnc12 [OXYQUINOLINE] | 1.3 | 11.1
3 | O=C(O)c1ccccc1S [THIOSALICYLIC ACID] | 1.3 | 16.9
4 | Sc1nc2ccccc2o1 | 1.3 | –
5 | Nc1ncccc1O | 1.3 | –
6 | Oc1ccccc1-c1nc2ccccc2s1 | 1.3 | –
